Structures are written as SMILES. pIC50: −log10 of the molar value.

As a reminder, the pIC50 is the IC50 on a negative log10 scale, so that one unit is a factor of ten.

The test deals with T1, human fatty acid synthase FASN (Homo sapiens, UniProt P49327).
T1 construct: human recombinant full-length fatty acid synthase; made in house; host or cells: SF9 cells
As to the kind of experiment: Biochemical activity testing of human fatty acid synthase FASN (NADPH fluorescence intensity enzyme assay). An excerpt:
• GST=Glutathione-S-transferase • FRET=Fluorescence resonance energy transfer • HTRF®=(homogenous time resolved fluorescence) • HEPES=4-(2-hydroxyethyl)-1-piperazine ethanesulfonic acid buffer • DTT=Dithiothreitol • BSA=bovine serum albumin • CHAPS=detergent; • CHAPS=3-[(3-cholamidopropyl)dimethylammonio]-1-propanesulfonate Biochemical Activity Testing of Human Fatty Acid Synthase FASN
Fatty acid synthase FASN is a multifunctional enzyme with seven catalytic activities thereby synthesising long chain fatty acids especially palmitoyl-CoA in the presence of co-factor NADPH starting from the substrates acetyl-CoA and malonyl-CoA. The reductive synthesis is realized by the oxidation of NADPH to NADP. Since NADPH has a high fluorescence intensity quantum yield compared to NADP with excitation at 340 nm and emission at 460 nm, the reaction can be monitored via the decrease in fluorescence intensity. The biochemical FASN activity testing was performed as 384 well two-time-point kinetic fluorescence intensity assay format in Greiner low volume medium binding 384-well black microtiter plates in a total assay volume of 8 μl and was used for high throughput screen. In each well 3 μl 40 nM human recombinant full-length fatty acid synthase (produced in-house in SF9 cells) were dispensed in the following assay buffer: 50 mM potassium phosphate buffer pH 7.0, 0.005% (w/v) BSA, 2 mM Glutathione, 0.02% Tween-20. Then 2 μl of 200 μM NADPH in assay buffer were added, followed by the addition of the test compounds in 10 dilution concentrations starting with 30 μM (final concentration) to get a final DMSO content of 1% (v/v). The mixture was incubated for at least 15 min at room temperature. After the pre-incubation the enzymatic reaction was started by the addition of 2 μl substrate solution (80 μM acetyl-CoA, 240 μM malonyl-CoA). A first fluorescence intensity measurement (time point one) was performed with an Envision multimode reader (Perkin Elmer LAS Germany GmbH) at excitation wavelength 340 nm (lamp mode) and emission wavelength 460 nm. The reaction was incubated for 30 minutes at room temperature. After this the fluorescence intensity was measured again in the Envision using the same parameters as described above (second time point measurement). The data were analysed by subtracting the first time point measurement value from the second time point measurement value (after the enzymatic reaction). The differences of the emission signals were determined. These reflect directly the conversion rate of NADPH. The full value used was the inhibitor-free reaction. A pharmacological zero value was used like GSK837149A (Sigma-Aldrich) in a final concentration of 5-10 μM. The inhibitory values (IC50) were determined using either the program Symyx Assay Explorer® or Condosseo® from GeneData.

T1 sequence (P49327 whole entry): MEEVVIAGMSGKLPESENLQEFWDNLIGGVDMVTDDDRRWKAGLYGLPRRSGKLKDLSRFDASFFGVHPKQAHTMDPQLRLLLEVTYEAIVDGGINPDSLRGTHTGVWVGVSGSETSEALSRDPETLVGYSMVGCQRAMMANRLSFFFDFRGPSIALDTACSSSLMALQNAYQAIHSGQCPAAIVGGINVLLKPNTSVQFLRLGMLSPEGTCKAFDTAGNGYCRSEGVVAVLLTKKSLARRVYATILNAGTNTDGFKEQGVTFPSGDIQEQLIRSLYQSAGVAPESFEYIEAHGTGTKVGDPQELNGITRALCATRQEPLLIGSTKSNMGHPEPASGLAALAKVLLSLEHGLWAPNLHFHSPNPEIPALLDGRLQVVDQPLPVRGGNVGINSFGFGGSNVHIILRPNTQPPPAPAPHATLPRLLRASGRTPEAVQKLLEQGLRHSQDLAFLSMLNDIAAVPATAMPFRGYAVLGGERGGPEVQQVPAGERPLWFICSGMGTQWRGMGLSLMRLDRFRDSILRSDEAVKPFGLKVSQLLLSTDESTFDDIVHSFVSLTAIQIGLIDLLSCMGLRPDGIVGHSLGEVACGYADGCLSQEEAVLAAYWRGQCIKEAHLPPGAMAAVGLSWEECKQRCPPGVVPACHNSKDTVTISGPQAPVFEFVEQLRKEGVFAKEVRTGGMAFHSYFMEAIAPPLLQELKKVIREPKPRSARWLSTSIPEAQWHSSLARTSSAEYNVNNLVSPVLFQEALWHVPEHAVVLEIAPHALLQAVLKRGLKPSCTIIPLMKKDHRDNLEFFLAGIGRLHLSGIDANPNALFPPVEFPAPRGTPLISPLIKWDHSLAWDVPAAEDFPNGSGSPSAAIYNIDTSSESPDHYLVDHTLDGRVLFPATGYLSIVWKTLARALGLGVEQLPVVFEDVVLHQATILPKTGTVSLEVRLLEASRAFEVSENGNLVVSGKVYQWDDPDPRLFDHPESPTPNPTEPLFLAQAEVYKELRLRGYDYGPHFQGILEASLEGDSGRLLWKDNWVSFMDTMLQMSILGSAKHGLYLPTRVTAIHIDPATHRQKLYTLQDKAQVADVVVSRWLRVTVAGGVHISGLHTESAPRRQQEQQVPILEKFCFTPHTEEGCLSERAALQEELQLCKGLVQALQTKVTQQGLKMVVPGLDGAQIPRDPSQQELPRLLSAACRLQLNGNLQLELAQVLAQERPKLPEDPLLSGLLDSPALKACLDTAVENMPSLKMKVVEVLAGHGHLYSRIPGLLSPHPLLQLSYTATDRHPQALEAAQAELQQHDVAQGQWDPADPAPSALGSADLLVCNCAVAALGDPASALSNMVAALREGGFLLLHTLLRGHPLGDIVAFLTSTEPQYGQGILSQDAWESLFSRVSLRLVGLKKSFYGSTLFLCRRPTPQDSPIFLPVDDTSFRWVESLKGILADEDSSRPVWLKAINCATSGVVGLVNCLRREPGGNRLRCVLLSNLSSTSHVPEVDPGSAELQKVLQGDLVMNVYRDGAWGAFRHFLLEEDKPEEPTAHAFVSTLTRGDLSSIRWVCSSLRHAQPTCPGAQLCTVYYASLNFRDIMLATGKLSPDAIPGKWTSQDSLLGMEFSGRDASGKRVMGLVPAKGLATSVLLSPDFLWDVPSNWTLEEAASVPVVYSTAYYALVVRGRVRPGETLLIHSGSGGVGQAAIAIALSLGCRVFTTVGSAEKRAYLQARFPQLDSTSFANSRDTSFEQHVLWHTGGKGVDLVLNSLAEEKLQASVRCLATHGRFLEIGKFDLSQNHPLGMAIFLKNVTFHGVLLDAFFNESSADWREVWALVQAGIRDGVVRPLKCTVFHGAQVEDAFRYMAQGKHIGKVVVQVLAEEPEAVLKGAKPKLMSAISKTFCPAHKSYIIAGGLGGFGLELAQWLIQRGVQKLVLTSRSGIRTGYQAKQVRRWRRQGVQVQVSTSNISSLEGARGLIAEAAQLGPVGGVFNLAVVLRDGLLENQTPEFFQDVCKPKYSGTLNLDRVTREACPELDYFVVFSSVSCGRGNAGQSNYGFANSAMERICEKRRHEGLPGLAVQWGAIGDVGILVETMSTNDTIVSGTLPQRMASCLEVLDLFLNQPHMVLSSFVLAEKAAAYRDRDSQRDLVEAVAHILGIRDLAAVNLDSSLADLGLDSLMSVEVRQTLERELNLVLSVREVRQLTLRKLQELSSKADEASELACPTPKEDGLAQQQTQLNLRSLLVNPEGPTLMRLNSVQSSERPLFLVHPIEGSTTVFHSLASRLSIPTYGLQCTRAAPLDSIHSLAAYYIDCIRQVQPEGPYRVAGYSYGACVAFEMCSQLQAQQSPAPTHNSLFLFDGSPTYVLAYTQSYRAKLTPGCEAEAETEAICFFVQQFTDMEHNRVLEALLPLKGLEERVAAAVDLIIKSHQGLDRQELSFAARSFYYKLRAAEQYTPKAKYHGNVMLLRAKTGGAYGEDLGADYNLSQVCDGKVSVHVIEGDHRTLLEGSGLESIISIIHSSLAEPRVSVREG

In the case of `Cc1coc([C@H]2CC[C@@H](N(C)C(=O)c3ccc(-c4nc5ccccc5o4)cc3)C2)n1` [Compound A27, 4-benzoxazol-2-yl-N-methyl-N-[(1 R,3S)-3-(4-methyl-oxazol-2-yl)-cyclopentyl]-benzamide], the pIC50 (human recombinant full-length FASN, inhibition) was 5.52 to 6.52.
Consider `Cc1noc([C@H]2CC[C@@H](N(C)C(=O)c3ccc(-c4nc5ccccc5o4)cc3)C2)n1` [Compound A28, 4-benzoxazol-2-yl-N-methyl-N-[(1 R,3S)-3-(3-methyl-[1,2,4]oxadiazol-5-yl)-cyclopentyl]-benzamide], for which the “IC50 FASN (enzyme assay): % at single concentration” value (@30 μM) is reported as −38% @30 μM.

For the origin of these results see US9790216B2, “3-substituted cyclopentylamine derivatives” (Merck Patent GmbH, priority 2013, dated 2017).
